We go through five compounds from patent US9017962B2, “Intracellular reporters” (The Johns Hopkins University, priority 2007, dated 2015).

What all share (type): cell-based
For test [1], the system named is Akt. Kind of test: AktAR emission ratio imaging in NIH3T3 cells. As to the method: (§1) NIH 3T3 cells were used in all experiments. The cells were plated on sterilized glass coverslips in 35-mm dishes and were grown to 40% confluency in Dulbecco's modified Eagle's medium (10% FBS) at 37° C. with 5% CO2. Cells were transfected with Lipofectamine (Invitrogen) then serum-starved for 24 h before imaging.
(§2) NIH 3T3 cells were washed once with Hanks' balanced salt solution (HBSS) buffer and imaged in the dark at room temperature. Images were acquired on a Zeiss Axiovert 200M microscope with a cooled charge-coupled device camera, as described in Ananthanarayanan, 2005. Dual emission ratio imaging used a 420DF20 excitation filter, a 450DRLP dichroic mirror, and two emission filters. For CFP and YFP, 475DF40 and 535DF25 were used respectively. Exposure time was 50-500 ms. Images were taken every 20-30 s.
(§3) Imaging data were analyzed with Metafluor 6.2 software (Universal Imaging, Downingtown, Pa.). Fluorescence images were background-corrected by deducting the background (regions with no cells) from the emission intensities of CFP or YFP. Traces before addition of drugs were normalized to 1.

In test [2] the test system is Akt. The test is described as follows: Mito-AktAR imaging, Akt activity at the mitochondrial outer membrane, NIH3T3 cells.
Excerpt: (§4) All of the targeting tags were subcloned to AktAR from targeted A Kinase Activity Reporter (AKAR) (Allen & Zhang, Biochem Biophys Res Commun. 2006, 22; 348(2):716-21). Two plasma membrane targeted AktAR, PM(Lyn)-AktAR and AktAR-PM(CAAX), were generated by addition of the N-terminal portion of Lyn kinase gene at the 5′ end and CAAX tag at the 3′ end of AktAR, respectively. Nuclear localization was achieved by a C-terminal nuclear localization signal (NLS) tag (PKKKRKVEDA, SEQ ID NO:31). The targeting motif from DAKAP1a was used to target AktAR to the outer membrane of mitochondria.
as §1, §2, §3
It has been known that Akt has several mitochondrial substrates. […] In summary, no basal, PDGF-stimulated, or phosphatase-suppressed endogenous Akt was detected at this location. It is possible that the extremely low activity of Akt at the mitochondrial outer membrane cannot be detected by Mito-AktAR.

The next test has as its system p38 MAPK. The test is described as follows: JNK reporter specificity: inhibition of p38 MAPK in HeLa cells. As to conditions: 25 μM, 45 min pre-treatment and continual presence. As to the method: FIG. 16A-B. Characterization of a MAPK reporter. FIG. 16A, Co-transfection of reporter with mCherry-JIPδ. To inhibit JNK activity, HeLa cells were co-transfected with the reporter and mCherry-JIPδ and imaged 24 h later in HBSS containing 10% FBS on stage warmer heated to 37° C. […] FIG. 16B, Response of reporter to inhibition of p38 MAPK.
To test the specificity of the reporter, HeLa cells were co-transfected with the reporter and a fusion construct of mCherry with the docking (δ) domain from JIP1.

Test [3] concerns calcineurin. Kind of test: Calcineurin activity reporter emission ratio imaging in HeLa cells. As to conditions: 1 μM, 10 minute preincubation. As to the method: FIG. 22. Characterization of calcineurin activity reporter 1 (CaNAR1). Graph of representative response of CaNAR1-expressing HeLa cells following ionomycin treatment. Ionomycin (1 μM) and additional CaCl2 (5 mM) were added to the imaging solution at the indicated times (arrows). The standard deviation for each time point is shown (n=2).
(§5) FIG. 23A-B. CaNAR1 is dephosphorylated in a calcineurin-dependent manner. FIG. 23A, graph of average response of CaNAR1 in the presence (black squares) or absence (gray diamonds) of cyclosporin A (CsA, 1-μM, 10 minute preincubation). Ionomycin and CaCl2 treatments are as described for FIG. 22. The standard error at each time point is shown (n=4 and 6 in the presence or absence of CsA, respectively). FIG. 23B, the electrophoretic mobility of CaNAR1 isolated from HeLa cell lysates was determined at various times after ionomycin addition using standard western blotting techniques using a rabbit anti-GFP antibody (diluted 1:4000 in blocking buffer) was used to probe for CaNAR1.
To generate a FRET-based reporter capable of monitoring calcineurin activity in live cells, we initially chose to flank NFAT1(1-415) with ECFP and cpV(L194) at the N- and C-termini, respectively. […] The emission ratio of yellow over cyan was then measured over time in HeLa cells expressing each construct, and their signals compared. […]

Test [4] deals with calcineurin. Kind of test: Electrophoretic mobility of CaNAR1 from HeLa cell lysates (western blot). Particulars: preincubation prior to ionomycin treatment. As to the method: as §5
Next, to correlate the FRET change with dephosphorylation of CaNAR1, we took advantage of the fact that the electrophoretic mobility of NFAT1 is strongly influenced by its phosphorylation state. […] Though its calculated molecular weight is 85 kDa, CaNAR1 migrated almost exclusively as an approximately 125 kDa species in uninduced cell lysates, consistent with hyperphosphorylation of its substrate region. […] Thus, the observed FRET change is correlated with dephosphorylation of the reporter by calcineurin, providing a real-time readout for calcineurin activity.
A general note: A western blot detects proteins with antibodies after separation by electrophoresis.

Test [5] concerns Akt. Kind of test: Plasma membrane targeted AktAR imaging in NIH3T3 cells. As to conditions: 5 mM pre-incubation for 30 min.
Excerpt: as §4, §1
NIH 3T3 cells were washed once with Hanks' balanced salt solution (HBSS) buffer and imaged in the dark at room temperature. Images were acquired on a Zeiss Axiovert 200M microscope with a cooled charge-coupled device camera, as described in Ananthanarayanan, 2005. […]
Imaging data were analyzed with Metafluor 6.2 software (Universal Imaging, Downingtown, Pa.). Fluorescence images were background-corrected by deducting the background (regions with no cells) from the emission intensities of CFP or YFP. […]

Entries after “also recorded” stand apart in the source; their conditions may differ.

On to `COC[C@@H]([C@H](O)[C@H](O)C(=O)NCC[C@H](C)c1nc(/C=C/C[C@@H]2O[C@]3(C[C@@H](O)[C@@H]2C)O[C@H]([C@H](C[C@H](O)[C@H](C)[C@H](O)[C@H](C)/C=C(C)/C(C)=C/C=C/C(C)=C\C#N)OC)[C@H](OP(=O)(O)O)C3(C)C)co1)N(C)C` [Calyculin A], for which, in the test on Akt [1] (5 nM after PDGF 50 ng/ml, serum-starved NIH3T3 cells), the “effect on AktAR response” value is recorded as “substantially increased the response of AktAR”. For the same compound, the “effect on Mito-AktAR response” value in the test on Akt [2] (endogenous Akt, Calyculin A 5 nM or LY294002 20 μM) is given as “did not recover any Akt activity”; in the test on Akt [2] (overexpressed Mito-mCherry-Akt1, Calyculin A 5 nM or LY294002), “failed to activate mitochondrial outer membrane-bound Akt”; with Akt [2] (overexpressed mCherry-Akt1, after PDGF, Calyculin A 5 nM or LY294002 20 μM) it was “further increased the response”.
With `C[S+]([O-])c1ccc(-c2nc(-c3ccncc3)c(-c3ccc(F)cc3)[nH]2)cc1` (stereo not shown) [SB203580], the “effect on response of the reporter to anisomycin” value with p38 MAPK is listed as “does not affect the response of the reporter to anisomycin”.
On to `CCCCCCCCCCCCCCCCCCOC[C@H](COP(=O)(O)O[C@H]1[C@H](O)[C@@H](O)[C@H](O)C[C@H]1OC)OC` [SH-5], for which the “AktAR response to PDGF after pre-incubation with inhibitor” value in the test on Akt [1] (6 μM pre-incubation in HBSS, PDGF 50 ng/ml) is listed as “did not show substantial response”.
Take Cyclosporin A [CsA]: the figures for the “effect on FRET change of CaNAR1 induced by ionomycin” value in the test on calcineurin [3] and in the test on calcineurin [3] (listed as cyclosporine A) were “completely abolished the FRET change” and “abolished”, respectively. In addition, the “effect on electrophoretic mobility of CaNAR1 after ionomycin” value with calcineurin [4] is recorded as “no change in the electrophoretic mobility”.
For the compound methylated β-cyclodextrin [MβCD], the “effect on PM(Lyn)-AktAR response to PDGF (lipid rafts)” value in the test on Akt [5] was “delayed response and reduced dynamic range; also recorded: diminishes Akt activity at the plasma membrane lipid rafts”.
